Read-outs that look alike come from different tables or passages of the source.
Legend:
Assay type in all cases: biochemical
[1] = molecular target: T1, human recombinant caspase 3 (Homo sapiens, UniProt P42574); test: Assay of inhibitory activity against human recombinant caspase 3 (fluorogenic substrate Ac-DEVD-MCA); conditions: for specificity of the enzyme inhibitory activity (in words): caspase 3 versus cathepsins and trypsin
T1 construct: purchased CALBIOCHEM 235417
T1 sequence (P42574 29-175 limits assumed): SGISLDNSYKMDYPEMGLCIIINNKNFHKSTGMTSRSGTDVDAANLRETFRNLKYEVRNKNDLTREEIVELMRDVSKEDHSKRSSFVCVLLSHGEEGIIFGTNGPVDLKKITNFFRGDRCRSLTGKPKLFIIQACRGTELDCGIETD
T1 sequence (P42574 176-277 limits assumed): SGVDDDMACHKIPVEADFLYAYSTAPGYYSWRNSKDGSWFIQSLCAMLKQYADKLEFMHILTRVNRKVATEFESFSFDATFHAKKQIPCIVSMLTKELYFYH
Description: A reaction buffer containing 10% sucrose, 0.1% CHAPS, 2 mM dithiothreitol in 25 mM HEPES (pH 7.5) is prepared. […] Thereto is added 25 μl of human recombinant caspase 3 (CALBIOCHEM catalog No. 235417), 500 U/ml, to start the reaction. After incubation at room temperature for 2 hr. the reaction quench buffer (0.1 M monochloroacetic acids 0.03 M sodium acetate, 0.15 M acetic acid (pH 4.3)) is added by 100 μl per well. The fluorescence of 7-amino-4-methylcoumarin ([…]) released by the enzyme reaction is measured using a fluorophotometer (Ex. 355 nm, Em. 460 nm).
The compounds of the above-mentioned 1. were examined for the activity inhibitory action on human recombinant caspase 3.

cathepsin B = cathepsin B (Homo sapiens, UniProt P07858); test: Enzyme specificity assay, cathepsin B (substrate Z-Arg-Arg-MNA); conditions: FIG. 2; phosphate buffer pH 5.5
Description: (§1) The above-mentioned compound was assayed for the inhibitory activity using […], cathepsin L and trypsin as enzymes other than caspase 3 and by an assay method similar to the above-mentioned Example 1 using phosphate buffer, pH 5.5 (100 mM NaCl, 5-mM DTT, 4 mM EDTA) as a buffer, Z-Arg-Arg-MNA as a substrate for […], Z-Phe-Arg-MNA as a substrate for cathepsin L, and Boc-Phe-Ser-Arg-MCA as a substrate for trypsin.

cathepsin L = cathepsin L (Homo sapiens, UniProt P07711); test: Enzyme specificity assay, cathepsin L (substrate Z-Phe-Arg-MNA); conditions: FIG. 2; phosphate buffer pH 5.5
Description: as §1

trypsin = molecular target: T2, trypsin (Bos taurus, UniProt P00760); test: Enzyme specificity assay, trypsin (substrate Boc-Phe-Ser-Arg-MCA); conditions: FIG. 2; phosphate buffer pH 5.5
T2 construct: gene PRSS1
T2 sequence (P00760 24-246): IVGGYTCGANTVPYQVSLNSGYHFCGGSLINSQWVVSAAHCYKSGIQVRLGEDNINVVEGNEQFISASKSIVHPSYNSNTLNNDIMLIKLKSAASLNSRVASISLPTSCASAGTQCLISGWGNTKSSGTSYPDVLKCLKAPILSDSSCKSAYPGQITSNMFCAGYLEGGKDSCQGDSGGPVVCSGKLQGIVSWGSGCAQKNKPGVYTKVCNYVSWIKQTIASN
Description: as §1

[2] = FIG. 1 lower panel, read-out: IC50, inhibitory activity against human recombinant caspase 3
[3] = FIG. 1 upper panel, read-out: IC50, inhibitory activity against human recombinant caspase 3

cathepsin L, sequence (P07711 114-333, species assumed): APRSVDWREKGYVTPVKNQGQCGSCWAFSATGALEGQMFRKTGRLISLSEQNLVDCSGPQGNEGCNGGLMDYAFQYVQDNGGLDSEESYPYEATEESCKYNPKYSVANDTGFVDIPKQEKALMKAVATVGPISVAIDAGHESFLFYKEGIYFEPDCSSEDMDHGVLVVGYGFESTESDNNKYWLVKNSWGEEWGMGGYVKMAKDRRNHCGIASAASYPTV

Molecule	IC50 [1, 2]	IC50 (cathepsin B)	IC50 (cathepsin L)	specificity of the enzyme inhibitory activity (in words) ([1]; FIG. 2)	IC50 (trypsin)	IC50 [1, 3]	caspase 3 inhibitory activity (in words) ([1]; FIG. 1, compared with DEVD, standard product)	IC50 ([1]; FIG. 2, read-out: IC50, caspase (Enzyme Specificity))	Inhibitory mode against human recombinant caspase 3 (Lineweaver-Burk plot) ([1]; FIG. 3, different substrate concentrations (2, 4, 6 and 8 nM))
cyanoimidazolylcobamide	91.2 nM								
CC(=O)N[C@@H](CC(=O)O)C(=O)N[C@@H](CCC(=O)O)C(=O)N[C@H](C(=O)N[C@H](C=O)CC(=O)O)C(C)C [DEVD, acetyl-L-aspartyl-L-glutamyl-L-valyl-L-aspart-1-al, reference compound]		672 nM	17.4 µM	strongest inhibitory activity against caspase 3	> 100 µM				
cyanocobalamin [reference compound]	1760 nM					2100 nM			
C=CC1=C(C)c2cc3[n-]c(cc4nc(cc5[n-]c(cc1n2)c(C)c5CCC(=O)[O-])C(CCC(=O)[O-])=C4C)c(C)c3C=C.[Co+2].[H+].[H+] [cobalt protoporphyrin]						13.1 nM			
C/C1=C2/[N-]C([C@H](CC(N)=O)[C@@]2(C)CCC(=O)NCC(C)O)[C@]2(C)N=C(/C(C)=C3N=C(/C=C4N=C1[C@@H](CCC(N)=O)C\4(C)C)[C@@H](CCC(N)=O)[C@]\3(C)CC(N)=O)[C@@H](CCC(N)=O)[C@]2(C)CC(N)=O.[C-]#N.[C-]#N.[Co] (some centres unmarked) [dicyanocobinamide]	0.142 nM	102 nM	0.00612 µM	strongest inhibitory activity against caspase 3	> 5 µM	0.28 nM	far stronger than the inhibitory activity of DEVD	0.28 nM	competitively inhibits the substrate for caspase 3

— patent US20090149436A1, “CASPASE INHIBITOR” (Astellas Pharma Inc., priority 2004, published 2009)
